In patent US12692249B2, “WDR5 inhibitors and modulators” (Vanderbilt University, priority 2019, dated 2026):

Experiments:
WDR5 = WDR5 (Homo sapiens, UniProt P61964); assay: TR-FRET competition binding assay, displacement of 10mer-Thr-FAM MLL peptide probe from His-tagged WDR5; conditions: WDR5-His tag (residues 24-334) 2 nM; 10mer-Thr-FAM 150 nM; 60 min, room temperature; read-out: Ki for Inhibition of WDR5 by TR-FRET assay
Procedure: Time Resolved-Fluorescence Energy Transfer Competition Assay […] Excess 10mer-Thr-FAM probe was utilized with His-tagged WDR5 in conjunction with a commercial anti-His antibody containing a Terbium label. The LanthaScreenTM Elite Tb-anti-HIS Antibody from ThermoFisher Scientific was used for this purpose. […] The 10mer-Thr-FAM probe when bound to WDR5 will undergo a FRET interaction with the Tb-anti-HIS and emit at 520 nm. […] WDR[…] 10[…] used at 150 nM. […] A source plate is prepared using an Echo Liquid Handler, which distributes the compounds to the assay plate (white, flat-bottom; OptiPlate) in a 10-point, 5-fold dilution schemes with a top concentration of 5 μM, in a final volume of 20 μL. […] The final DMSO concentration in each well of the assay plate is 1% or lower. The plate is covered, shielded from light, and incubated for 60 minutes at room temperature with rocking. 10mer-Thr-FAM and Anti-His terbium antibody fluorescence is then measured on a Biotek Cytation 3 at excitation wavelength of 340 nm, and emission wavelengths of 495 nm and 520 nm. […] TR-FRET signal is plotted and IC50 and Ki values are calculated according to the formula of Wang Z. FEBS Lett (1996) 3, 245. Ki=[I]50/([L]50/Kd+[P]0/Kd+1) where [I]50 is the concentration of the free inhibitor at 50% inhibition, [L]50 is the concentration of the free labeled ligand at 50% inhibition, [P]0 is the concentration of the free protein at 0% inhibition, Kd represents the dissociation constant of the FITC-MLL or 10mer-Thr-FAM probe for WDR5. Total fluorescence is also measured, to rule out compounds that are inherently fluorescent or able to act as quenchers in the assay. TR-FRET Binding Assay

[1] = test system: MV4:11 human cancer cell lines; assay: Cellular viability / anti-proliferative assay, CellTiter-Glo, 5 day protocol; type: cell-based; conditions: Homo sapiens, MV4-11, 120 h, MV4:11 cells; 5 day incubation; CellTiter-Glo; mean of at least two replicates; read-out: GI50 on cellular proliferation of MV4:11 human cancer cell lines
Procedure: Cellular Viability of Human Tumor Cell Lines
Anti-proliferative activity using MLL-harboring cell lines. MV-4-11 and K562 cells are grown in IMDM media supplemented with 10% FBS and 1% penicillin/streptomycin, Molm-13 cells are cultured in RPMI-1640 media supplemented with 10% FBS and 1% penicillin/streptomycin. Viability assays are performed by dispensing 200 cells at 7200 cells/mL into each well of an opaque 384-well plate and adding compounds at the indicated concentrations in a final volume, of 32 μL. and a final concentration of DMSO of 0.3% for all samples. A certain range of compound concentrations is made through a series of 2-fold dilutions starting 30 μM at the highest, total 22 dilutions. After a set incubation period, 5 day protocol, the viability of cells in each well is assessed using the CellTiter-Glo assay (Promega), read on a 96 Microplane Luminometer (Cytation 3, BioTek). Serial dilutions of each cell type are performed in all assays to generate standard curves and the final densities of cells are determined within the dynamic range of the instrument. GI50 values are calculated based on XLfit software (IDBS, Guildford, UK) with Sigmoidal Dose-Response Model. Each compound is tested in minimum of two replicates. Data are expressed as mean.

Q: Which results are given for `CCc1cc(OC)c2nccc(N3CCc4c(cc(Cn5ccnc5)cc4-c4cn(C)nc4C(F)(F)F)C3=O)c2c1` [Example 20, 7-((1H-Imidazol-1-yl)methyl)-2-(6-ethyl-8-methoxyquinolin-4-yl)-5-(1-methyl-3-(trifluoromethyl)-1H-pyrazol-4-yl)-3,4-dihydroisoquinolin-1(2H)-one]?
A: Ki (WDR5): < 0.02 nM; GI50 [1]: < 20 nM

Q: `COc1ccc2nc(C)cc(N3CCc4c(cc(Cn5ccnc5C)cc4-c4cn(C)nc4C(F)(F)F)C3=O)c2c1` [Example 8, 2-(6-Methoxy-2-methylquinolin-4-yl)-7-((2-methyl-1H-imidazol-1-yl)methyl)-5-(1-methyl-3-(trifluoromethyl)-1H-pyrazol-4-yl)-3,4-dihydroisoquinolin-1(2H)-one] was tested. Which Ki (WDR5) did it give?
A: The Ki was 0.026 nM.

Q: What about the GI50 [1] of the same compound?
A: Its GI50 is under 20 nM.

Q: What does the source list for `CCc1cc(C(=O)NCCNC(=O)c2ccncc2)c2nccc(N3CCc4c(cc(Cn5ccnc5)cc4-c4cn(C)nc4C(F)(F)F)C3=O)c2c1` [Example 213, 4-(7-((1H-imidazol-1-yl)methyl)-5-(1-methyl-3-(trifluoromethyl)-1H-pyrazol-4-yl)-1-oxo-3,4-dihydroisoquinolin-2(1H)-yl)-6-ethyl-N-(2-(isonicotinamido)ethyl)quinoline-8-carboxamide]?
A: Ki (WDR5): < 0.02 nM; GI50 [1]: < 20 nM

Q: For `Cc1cc2c(N3CCc4c(cc(Cn5ccnc5)cc4-c4cn(C)nc4C(F)(F)F)C3=O)ccnc2n1C` [Example 28, 7-((1H-Imidazol-1-yl)methyl)-2-(1,2-dimethyl-1H-pyrrolo[2,3-b]pyridin-4-yl)-5-(1-methyl-3-(trifluoromethyl)-1H-pyrazol-4-yl)-3,4-dihydroisoquinolin-1(2H)-one], which Ki (WDR5) is on record?
A: Its Ki is 0.032 nM.

Q: What about the GI50 [1] of the same compound?
A: Its GI50 is 281 nM.

Q: `CCc1cc(N(C)CCN(C)C)c2nccc(N3CCc4c(cc(Cn5ccnc5)cc4-c4cn(C)nc4C(F)(F)F)C3=O)c2c1` [Example 38, 7-((1H-Imidazol-1-yl)methyl)-2-(8-((2-(dimethylamino)ethyl)(methyl)amino)-6-ethylquinolin-4-yl)-5-(1-methyl-3-(trifluoromethyl)-1H-pyrazol-4-yl)-3,4-dihydroisoquinolin-1(2H)-one] was tested. Which Ki (WDR5) did it give?
A: The Ki was under 0.02 nM.

Q: What about the GI50 [1] of the same compound?
A: Its GI50 is 31 nM.

Q: Which Ki (WDR5) does the source give for `CCc1cc(NC(C)=O)c2nccc(N3CCc4c(cc(Cn5ccnc5)cc4-c4cn(C)nc4C(F)(F)F)C3=O)c2c1` [Example 231, N-(4-(7-((1H-Imidazol-1-yl)methyl)-5-(1-methyl-3-(trifluoromethyl)-1H-pyrazol-4-yl)-1-oxo-3,4-dihydroisoquinolin-2(1H)-yl)-6-ethylquinolin-8-yl)acetamide] here?
A: Its Ki is under 0.02 nM.

Q: Which GI50 [1] does the source give for `CCc1cc(C(=O)NC)c2nccc(N3CCc4c(cc(Cn5ccnc5)cc4-c4cccnc4C(F)(F)F)C3=O)c2c1` [Example 199, 4-(7-((1H-imidazol-1-yl)methyl)-1-oxo-5-(2-(trifluoromethyl)pyridin-3-yl)-3,4-dihydroisoquinolin-2(1H)-yl)-6-ethyl-N-methylquinoline-8-carboxamide] here?
A: Its GI50 is 131 nM.

Q: Which GI50 [1] does the source give for `CCc1cc(C(=O)Nc2nccn2C)c2nccc(N3CCc4c(cc(Cn5ccnc5)cc4-c4cn(C)nc4C(F)(F)F)C3=O)c2c1` [Example 161, 4-(7-((1H-Imidazol-1-yl)methyl)-5-(1-methyl-3-(trifluoromethyl)-1H-pyrazol-4-yl)-1-oxo-3,4-dihydroisoquinolin-2(1H)-yl)-6-ethyl-N-(1-methyl-1H-imidazol-2-yl)quinoline-8-carboxamide] here?
A: The GI50 was 59 nM.

Q: Which GI50 [1] does the source give for `COc1cc(N2CCOCC2)c2nc(C)cc(N3CCc4c(cc(Cn5ccnc5)cc4-c4cn(C)nc4C(F)(F)F)C3=O)c2c1` [Example 146, 7-((1H-Imidazol-1-yl)methyl)-2-(6-methoxy-2-methyl-8-morpholinoquinolin-4-yl)-5-(1-methyl-3-(trifluoromethyl)-1H-pyrazol-4-yl)-3,4-dihydroisoquinolin-1(2H)-one] here?
A: The GI50 was 26 nM.
